Assay [1] deals with intracranial U87 xenograft in nude mice. Put plainly: Intracranial U87 xenograft tumor growth, bioluminescence. Type of assay: in vivo, mouse. To be noted: female nude mice, 10 µg i.p. once every 2 days from third day after implantation; vs SC; n = 6, p < 0.01. An excerpt:
Considering that the SH2 domain predominantly represents the inhibition of SHF on STAT3 dimerization and activity, we speculated that this domain may be an optional target for GBM suppression. To this end, we analyzed the mechanical interaction of SHF and STAT3. The structures of human SHF (aa265‐421) and STAT3 (aa130‐715). both of which spanned their respective SH2 domain. were simulated by Swiss‐Model server (https://swissmodel.expasy.org/). To simulate the interaction of SHF and STAT3, Discovery studio 2018 was employed to complete protein‐protein docking using ZDOCK as an initial stage. A rigid body molecular docking algorithm utilizing a fast Fourier transform (FFT) algorithm was used to further improve performance for searching in translational space. […] Next, we determined the implication of C16 in tumor inhibition. […] A concentration of 25 uM was determined to be adequate for use in the subsequent experiments. […]
Figure 7 Peptide derived from the STAT3‐binding sites of SHF is an effective GBM suppressive strategy. […] B) IF staining determined the cell penetrability and nuclear‐localization of C16. […] The relative quantification of STAT3 dimerization was listed. […] The relative quantification of STAT3/DNMT1 interaction was listed. […] The relative quantification of STAT3/DNMT1 interaction was listed. […]

In assay [2] the test system is GST-STAT3. Nature of the assay: Pull-down assay, GST-STAT3 with peptide. Type of assay: binding. To be noted: GST-STAT3 incubated with C16 or SC for 2 h; Anti-His magnetic beads. As for the experimental part: Figure 7 Peptide derived from the STAT3‐binding sites of SHF is an effective GBM suppressive strategy. A) Binding model between SHF and STAT3 using ZDOCK server. […] B) IF staining determined the cell penetrability and nuclear‐localization of C16. U251 cells were incubated with C16 or SC for 2 h and performed IF staining using the indicated antibodies. Bars, 10 µm. C) The statical analysis of adsorption equilibrium assay detecting the binding of C16 and SC with recombinant STAT3. D) Pull‐down assay indicating C16 binds STAT3. GST‐STAT3 was incubated with C16 or SC for 2 h, and the pull‐down assay was performed using Anti‐His magnetic beads. E) IP assay showing the effect of C16 on STAT3 dimerization. 293T cells transfected with indicated vectors were incubated with C16 for 2 h. The relative quantification of STAT3 dimerization was listed. F) IP assay detecting the effect of C16 on the interaction of STAT3 and DNMT1. […] The relative quantification of STAT3/DNMT1 interaction was listed. […] The relative quantification of STAT3/DNMT1 interaction was listed. […] Positive cells were quantified 20 randomly selected fields per mouse (n = 6, Student's t‐test, **p < 0.01). […]
Immunoprecipitation (IP) experiments were performed to analyze the protein interactions. […] Precipitated products were analyzed by Western blot using the specified antibodies. […]

As to “C16: peptide spanning SHF amino acids 388–421, palmitic acid at the N-terminus, amidated C-terminus, 3× His tags added to the C-terminal (PFSSVPEIVHHYASRKLPIKGAEHMSLLYPVAIR; palmitic acid at the N-terminus; amidated C-terminus; left off: 3× His tags, C-terminal, kept)”, the “growth of intracranial tumors” value in assay [1] is on record as “potently inhibited the growth of intracranial tumors”. Moreover, in assay [2], the “STAT3 binding in pull-down / in vitro IP” value is given as “contains the STAT3 binding capacity”.

Source of the values: paper PMC9475553, “SHF Acts as a Novel Tumor Suppressor in Glioblastoma Multiforme by Disrupting STAT3 Dimerization” (Advanced Science, 2022).
